Reference: PubChem BioAssay (NCI)
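Protocol summary: plate cells (96-well), add compound at 5 concentrations, incubate 48 h, interpolate endpoints linearly. TGI denotes the concentration required for complete inhibition of growth.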

Experiments:
Assay in all cases: NCI tumour cell line growth inhibition, 48 h
M14 melanoma = system: M14 melanoma
NCI/ADR-RES ovarian = system: NCI/ADR-RES ovarian
HL-60(TB) leukemia = system: HL-60(TB) leukemia
NCI-H460 lung = system: NCI-H460 lung
HCT-116 colon = system: HCT-116 colon
RPMI-8226 leukemia = system: RPMI-8226 leukemia
A498 renal = system: A498 renal
HCC-2998 colon = system: HCC-2998 colon
RXF 393 renal = system: RXF 393 renal
NCI-H23 lung = system: NCI-H23 lung
SF-539 CNS = system: SF-539 CNS
COLO 205 colon = system: COLO 205 colon
MDA-N = system: MDA-N
UACC-62 melanoma = system: UACC-62 melanoma
HT29 colon = system: HT29 colon
NCI-H226 lung = system: NCI-H226 lung
IGROV1 ovarian = system: IGROV1 ovarian
MDA-MB-435 = system: MDA-MB-435
MOLT-4 leukemia = system: MOLT-4 leukemia
CCRF-CEM leukemia = system: CCRF-CEM leukemia
HCT-15 colon = system: HCT-15 colon
MDA-MB-231 breast = system: MDA-MB-231 breast
SF-295 CNS = system: SF-295 CNS
OVCAR-4 ovarian = system: OVCAR-4 ovarian
CAKI-1 renal = system: CAKI-1 renal
LOX IMVI melanoma = system: LOX IMVI melanoma
EKVX NSCLC = system: EKVX NSCLC
OVCAR-5 ovarian = system: OVCAR-5 ovarian
PC-3 prostate = system: PC-3 prostate
HOP-92 NSCLC = system: HOP-92 NSCLC
NCI-H522 lung = system: NCI-H522 lung
UACC-257 melanoma = system: UACC-257 melanoma
SW-620 colon = system: SW-620 colon
786-0 renal = system: 786-0 renal
MCF7 breast = system: MCF7 breast
SK-MEL-5 melanoma = system: SK-MEL-5 melanoma
A549 NSCLC = system: A549 NSCLC
DU-145 prostate = system: DU-145 prostate
SNB-19 CNS = system: SNB-19 CNS
HOP-62 NSCLC = system: HOP-62 NSCLC
OVCAR-8 ovarian = system: OVCAR-8 ovarian
SR leukemia = system: SR leukemia
HS 578T breast = system: HS 578T breast
SK-MEL-2 melanoma = system: SK-MEL-2 melanoma
SF-268 CNS = system: SF-268 CNS
U251 CNS = system: U251 CNS
ACHN renal = system: ACHN renal
T-47D breast = system: T-47D breast
UO-31 renal = system: UO-31 renal
OVCAR-3 ovarian = system: OVCAR-3 ovarian
TK-10 renal = system: TK-10 renal
SN12C renal = system: SN12C renal
SK-MEL-28 melanoma = system: SK-MEL-28 melanoma
SK-OV-3 ovarian = system: SK-OV-3 ovarian
K-562 leukemia = system: K-562 leukemia
SNB-75 CNS = system: SNB-75 CNS
KM12 colon = system: KM12 colon
MALME-3M melanoma = system: MALME-3M melanoma

Cc1nc2c(sc3nc4c(cc32)CCC4)c(=O)o1
TGI (M14 melanoma): > 100 µM
TGI (NCI/ADR-RES ovarian): > 100 µM
TGI (HL-60(TB) leukemia): > 100 µM
TGI (NCI-H460 lung): > 100 µM
TGI (HCT-116 colon): > 100 µM
TGI (RPMI-8226 leukemia): > 88.3 µM
TGI (A498 renal): > 100 µM
TGI (HCC-2998 colon): > 100 µM
TGI (RXF 393 renal): > 100 µM
TGI (NCI-H23 lung): > 100 µM
TGI (SF-539 CNS): > 70.8 µM
TGI (COLO 205 colon): > 100 µM
TGI (MDA-N): > 100 µM
TGI (UACC-62 melanoma): > 100 µM
TGI (HT29 colon): > 100 µM
TGI (NCI-H226 lung): > 100 µM
TGI (IGROV1 ovarian): 59.1 µM
TGI (MDA-MB-435): 99.3 µM
TGI (MOLT-4 leukemia): > 100 µM
TGI (CCRF-CEM leukemia): > 88.9 µM
TGI (HCT-15 colon): 99.6 µM
TGI (MDA-MB-231 breast): > 100 µM
TGI (SF-295 CNS): > 100 µM
TGI (OVCAR-4 ovarian): 89 µM
TGI (CAKI-1 renal): > 100 µM
TGI (LOX IMVI melanoma): > 100 µM
TGI (EKVX NSCLC): > 100 µM
TGI (OVCAR-5 ovarian): > 100 µM
TGI (PC-3 prostate): > 100 µM
TGI (HOP-92 NSCLC): > 96.4 µM
TGI (NCI-H522 lung): 77.9 µM
TGI (UACC-257 melanoma): > 100 µM
TGI (SW-620 colon): > 100 µM
TGI (786-0 renal): > 100 µM
TGI (MCF7 breast): > 100 µM
TGI (SK-MEL-5 melanoma): > 100 µM
TGI (A549 NSCLC): > 100 µM
TGI (DU-145 prostate): > 100 µM
TGI (SNB-19 CNS): > 96.6 µM
TGI (HOP-62 NSCLC): > 100 µM
TGI (OVCAR-8 ovarian): > 93.7 µM
TGI (SR leukemia): > 100 µM
TGI (HS 578T breast): > 100 µM
TGI (SK-MEL-2 melanoma): > 100 µM
TGI (SF-268 CNS): > 100 µM
TGI (U251 CNS): > 100 µM
TGI (ACHN renal): > 100 µM
TGI (T-47D breast): > 100 µM
TGI (UO-31 renal): > 91.1 µM
TGI (OVCAR-3 ovarian): > 100 µM
TGI (TK-10 renal): > 100 µM
TGI (SN12C renal): > 100 µM
TGI (SK-MEL-28 melanoma): > 100 µM
TGI (SK-OV-3 ovarian): > 100 µM
TGI (K-562 leukemia): > 100 µM
TGI (SNB-75 CNS): > 100 µM
TGI (KM12 colon): > 100 µM

O=C(O)CCCc1ccc2c(c1)CC1(C2)Cc2cc3c(cc2C1)CCCC3
TGI (M14 melanoma): 30.9 µM
TGI (NCI/ADR-RES ovarian): 87.4 µM
TGI (HL-60(TB) leukemia): 28.2 µM
TGI (HCT-116 colon): 8.11 µM
TGI (RPMI-8226 leukemia): 53.2 µM
TGI (A498 renal): 35.3 µM
TGI (HCC-2998 colon): 41.4 µM
TGI (RXF 393 renal): > 100 µM
TGI (NCI-H23 lung): 49.2 µM
TGI (MALME-3M melanoma): 41.5 µM
TGI (SF-539 CNS): 3.82 µM
TGI (COLO 205 colon): 38.2 µM
TGI (MDA-N): 39.9 µM
TGI (UACC-62 melanoma): > 100 µM
TGI (HT29 colon): 30.4 µM
TGI (NCI-H226 lung): 61.8 µM
TGI (IGROV1 ovarian): 41.4 µM
TGI (MDA-MB-435): 38 µM
TGI (MOLT-4 leukemia): 5.4 µM
TGI (CCRF-CEM leukemia): 27.9 µM
TGI (HCT-15 colon): 23.7 µM
TGI (SF-295 CNS): 56.9 µM
TGI (OVCAR-4 ovarian): 45.6 µM
TGI (LOX IMVI melanoma): 32.7 µM
TGI (EKVX NSCLC): > 100 µM
TGI (OVCAR-5 ovarian): 41.3 µM
TGI (PC-3 prostate): 66.8 µM
TGI (HOP-92 NSCLC): 44.2 µM
TGI (NCI-H522 lung): 47 µM
TGI (UACC-257 melanoma): > 100 µM
TGI (786-0 renal): 58.6 µM
TGI (MCF7 breast): 94.2 µM
TGI (SK-MEL-5 melanoma): 32.7 µM
TGI (A549 NSCLC): 67 µM
TGI (HOP-62 NSCLC): 3.54 µM
TGI (OVCAR-8 ovarian): 31.4 µM
TGI (SR leukemia): 40.7 µM
TGI (HS 578T breast): > 100 µM
TGI (SK-MEL-2 melanoma): 35.3 µM
TGI (U251 CNS): 32.9 µM
TGI (ACHN renal): 33.1 µM
TGI (T-47D breast): > 100 µM
TGI (UO-31 renal): 34.2 µM
TGI (OVCAR-3 ovarian): 35.2 µM
TGI (TK-10 renal): > 100 µM
TGI (SN12C renal): 44.1 µM
TGI (SK-OV-3 ovarian): 52.9 µM
TGI (K-562 leukemia): 25.9 µM
TGI (KM12 colon): 33.6 µM

Cc1cc(C)c(-c2no/c(=N\S(=O)(=O)c3ccc(Cl)cc3)o2)c(C)c1
TGI (M14 melanoma): > 100 µM
TGI (NCI/ADR-RES ovarian): > 100 µM
TGI (HL-60(TB) leukemia): 77.4 µM
TGI (NCI-H460 lung): > 100 µM
TGI (HCT-116 colon): > 100 µM
TGI (RPMI-8226 leukemia): > 100 µM
TGI (A498 renal): > 100 µM
TGI (HCC-2998 colon): > 100 µM
TGI (RXF 393 renal): > 100 µM
TGI (NCI-H23 lung): > 100 µM
TGI (MALME-3M melanoma): > 100 µM
TGI (SF-539 CNS): > 100 µM
TGI (COLO 205 colon): > 100 µM
TGI (MDA-N): > 100 µM
TGI (UACC-62 melanoma): > 100 µM
TGI (HT29 colon): > 100 µM
TGI (NCI-H226 lung): > 100 µM
TGI (IGROV1 ovarian): > 100 µM
TGI (MDA-MB-435): > 100 µM
TGI (MOLT-4 leukemia): > 100 µM
TGI (CCRF-CEM leukemia): > 100 µM
TGI (HCT-15 colon): > 100 µM
TGI (MDA-MB-231 breast): > 100 µM
TGI (SF-295 CNS): > 100 µM
TGI (OVCAR-4 ovarian): > 100 µM
TGI (CAKI-1 renal): > 100 µM
TGI (EKVX NSCLC): > 100 µM
TGI (OVCAR-5 ovarian): > 100 µM
TGI (PC-3 prostate): > 100 µM
TGI (NCI-H522 lung): 71.2 µM
TGI (UACC-257 melanoma): > 100 µM
TGI (SW-620 colon): > 100 µM
TGI (786-0 renal): > 100 µM
TGI (MCF7 breast): 56.1 µM
TGI (SK-MEL-5 melanoma): 68 µM
TGI (A549 NSCLC): > 100 µM
TGI (DU-145 prostate): > 100 µM
TGI (SNB-19 CNS): > 100 µM
TGI (HOP-62 NSCLC): > 100 µM
TGI (OVCAR-8 ovarian): > 100 µM
TGI (SR leukemia): 55 µM
TGI (HS 578T breast): > 100 µM
TGI (SK-MEL-2 melanoma): > 100 µM
TGI (SF-268 CNS): > 100 µM
TGI (U251 CNS): > 100 µM
TGI (ACHN renal): > 100 µM
TGI (T-47D breast): > 100 µM
TGI (UO-31 renal): > 100 µM
TGI (OVCAR-3 ovarian): > 100 µM
TGI (TK-10 renal): > 100 µM
TGI (SN12C renal): > 100 µM
TGI (SK-MEL-28 melanoma): > 100 µM
TGI (SK-OV-3 ovarian): > 100 µM
TGI (K-562 leukemia): > 100 µM
TGI (SNB-75 CNS): > 100 µM
TGI (KM12 colon): > 100 µM
